Source: patent publication US8436186B2, “Thiazolyl piperidine derivatives” (Merck Patent Gesellschaft mit beschrankter Haftung, priority 2008, dated 2013)

Each molecule was assayed against SphK1 (Homo sapiens, UniProt Q9NYA1) (assay: SphK1 384-well flashplate kinase assay). Conditions: enzyme assay.
Sequence of SphK1 (Q9NYA1 whole entry): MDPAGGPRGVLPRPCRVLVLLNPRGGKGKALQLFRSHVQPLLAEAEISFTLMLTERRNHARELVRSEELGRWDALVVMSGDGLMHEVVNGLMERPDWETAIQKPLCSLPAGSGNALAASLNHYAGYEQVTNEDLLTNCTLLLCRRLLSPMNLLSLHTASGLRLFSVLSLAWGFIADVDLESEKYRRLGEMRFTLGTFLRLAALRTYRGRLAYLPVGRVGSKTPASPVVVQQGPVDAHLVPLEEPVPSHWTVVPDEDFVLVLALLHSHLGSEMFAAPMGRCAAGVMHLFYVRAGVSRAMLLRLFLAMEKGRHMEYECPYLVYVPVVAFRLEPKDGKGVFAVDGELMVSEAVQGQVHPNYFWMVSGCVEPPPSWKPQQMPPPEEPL
Assay type: biochemical
Description: The kinase assay is carried out as a 384-well flashplate assay.
5 nM modified SphK1, 800 nM omega-biotinyl-D-erythro-sphingosine and 1 μM ATP (with 0.3 μCi of ^33P-ATP/well) are incubated in a total volume of 50 μl (25 mM HEPES, 5 mM MgCl2, 1 mM dithiothreitol, 0.01% of Brij35, 0.1% of BSA (fatty acid-free), pH 7.4) without or with test substance (5-10 concentrations) at 30° C. for 120 min. The reaction is terminated using 25 μl of 200 mM EDTA solution, filtered off with suction at room temperature after 30 min, and the cavities are washed 3 times with 100 μl of 0.9% NaCl solution. The non-specific proportion of the kinase reaction (blank) is determined using 0.5 mM NaCl. Radioactivity is measured in topcount. IC50 values are calculated using RS1.
Work on `COCCCNC(=O)N1CCC(c2nc(-c3ccc4c(c3)C(C)(C)CCC4(C)C)cs2)CC1` [Compound A79] yielded an IC50 of 1000 to 10000 nM.
Molecule `OCCCN1CCC(c2nc(-c3ccc4c(c3)CCCC4)cs2)CC1` [Compound A13] has an IC50 of 1000 to 10000 nM.
In the case of `COCC(C)NC(=O)N1CCC(c2nc(-c3ccc4c(c3)C(C)(C)CCC4(C)C)cs2)CC1` (stereo not drawn) [Compound A78], the IC50 is reported as 1000 to 10000 nM.
With `CC1(C)CCC(C)(C)c2cc(-c3csc(C4CCN(S(C)(=O)=O)CC4)n3)ccc21` [Compound A83] the IC50 was over 10000 nM.
`CCN1CCC(c2nc(-c3ccc4c(c3)C(C)(C)CCC4(C)C)cs2)CC1` [Compound A34] gave an IC50 of 10 to 1000 nM.
Molecule `CN(C)n1cccc1CN1CCC(c2nc(-c3ccc4c(c3)C(C)(C)CCC4(C)C)cs2)CC1` [Compound B14] has an IC50 of 1000 to 10000 nM.
For `COCCN1CCC(c2nc(-c3ccc4c(c3)C(C)(C)CCC4(C)C)cs2)CC1` [Compound A32], the IC50 was 10 to 1000 nM.
`CCN(CC)CCCN1CCC(c2nc(-c3ccc4c(c3)C(C)(C)CCC4(C)C)cs2)CC1` [Compound A36] showed an IC50 of 1000 to 10000 nM.
`Cn1cccc1CN1CCC(c2nc(-c3ccc4c(c3)C(C)(C)CCC4(C)C)cs2)CC1` [Compound B8] was tested, and the IC50 was 1000 to 10000 nM.
For `CC1(C)CCC(C)(C)c2cc(-c3csc(C4CCN(Cc5ccncc5)CC4)n3)ccc21` [Compound A74], the IC50 was 1000 to 10000 nM.
For `CC1(C)CCC(C)(C)c2cc(-c3csc(C4CCN(CCCN5CCCCC5)CC4)n3)ccc21` [Compound A28], the IC50 was 10 to 1000 nM.
With `Cc1oncc1S(=O)(=O)N1CCC(c2nc(-c3ccc4c(c3)C(C)(C)CCC4(C)C)cs2)CC1` [Compound A82] the IC50 was 1000 to 10000 nM.
For `CC(CN(C)C)N1CCC(c2nc(-c3ccc4c(c3)C(C)(C)CCC4(C)C)cs2)CC1` (stereo not drawn) [Compound A29], the IC50 was 1000 to 10000 nM.
Molecule `CC1(C)CCC(C)(C)c2cc(-c3csc(C4CCN(C(=O)c5ccncc5)CC4)n3)ccc21` [Compound A52] has an IC50 of 1000 to 10000 nM.
For `CC1(C)CCC(C)(C)c2cc(-c3csc(C4CCN(CCCCCO)CC4)n3)ccc21` [Compound B10], the IC50 was 10 to 1000 nM.
Molecule `CC(CO)(CO)C(=O)N1CCC(c2nc(-c3ccc4c(c3)C(C)(C)CCC4(C)C)cs2)CC1` [Compound A57] has an IC50 of 1000 to 10000 nM.
`CC1(C)CCC(C)(C)c2cc(-c3csc(C4CCN(C(=O)[C@H](N)CCCCO)CC4)n3)ccc21` [Compound A66] gave an IC50 of 10 to 1000 nM.
In the case of `CN(C)CCN1CCC(c2nc(-c3ccc4c(c3)CCCC4)cs2)CC1` [Compound A6], the IC50 is reported as over 10000 nM.
`CCN(CC)CCN1CCC(c2nc(-c3ccc4c(c3)C(C)(C)CCC4(C)C)cs2)CC1` [Compound A26] was tested, and the IC50 was 1000 to 10000 nM.
In the case of `CC1(C)CCC(C)(C)c2cc(-c3csc(C4CCN(CCCCN5CCOCC5)CC4)n3)ccc21` [Compound A30], the IC50 is reported as 10 to 1000 nM.
`CC1(C)CCC(C)(C)c2cc(-c3csc(C4CCN(C(=O)C5CNCCO5)CC4)n3)ccc21` (stereo not drawn) [Compound A65] gave an IC50 of 10 to 1000 nM.
Work on `Cc1[nH]cnc1CN1CCC(c2nc(-c3ccc4c(c3)C(C)(C)CCC4(C)C)cs2)CC1` [Compound A72] yielded an IC50 of 10 to 1000 nM.
Work on `CC1(C)CCC(C)(C)c2cc(-c3csc(C4CCN(C(=O)OCCN5CCCC5)CC4)n3)ccc21` [Compound A49] yielded an IC50 of over 10000 nM.
Work on `CC1(C)CCC(C)(C)c2cc(-c3csc(C4CCN(Cc5c[nH]cn5)CC4)n3)ccc21` [Compound A75] yielded an IC50 of 10 to 1000 nM.
`COCC(O)CN1CCC(c2nc(-c3ccc4c(c3)C(C)(C)CCC4(C)C)cs2)CC1` (stereo not drawn) [Compound A17] gave an IC50 of 10 to 1000 nM.
`CC1(C)CCC(C)(C)c2cc(-c3csc(C4CCN(Cc5ccc(CO)o5)CC4)n3)ccc21` [Compound B9] showed an IC50 of 1000 to 10000 nM.
For `CC1(C)CCC(C)(C)c2cc(-c3csc(C4CCN(CCn5c(=O)[nH]c6ccccc6c5=O)CC4)n3)ccc21` [Compound A24], the IC50 was 1000 to 10000 nM.
Molecule `CC1(C)CC(C)(C)c2cc(-c3csc(C4CCNCC4)n3)ccc21` [Compound C7] has an IC50 of 10 to 1000 nM.
Molecule `CC1(C)CCC(C)(C)c2cc(-c3csc(C4CCN(Cc5cc[nH]n5)CC4)n3)ccc21` [Compound B7] has an IC50 of 10 to 1000 nM.
`CN(C)CCCNC(=O)N1CCC(c2nc(-c3ccc4c(c3)C(C)(C)CCC4(C)C)cs2)CC1` [Compound A42] showed an IC50 of 1000 to 10000 nM.
Work on `CC1(C)CC(C)(C)c2cc(-c3csc(C4CCN(CCCO)CC4)n3)ccc21` [Compound B4] yielded an IC50 of 10 to 1000 nM.
In the case of `CC1(C)CCC(C)(C)c2cc(-c3csc(C4CCN(CC(N)=O)CC4)n3)ccc21` [Compound A8], the IC50 is reported as 1000 to 10000 nM.
Molecule `CC1(C)CCC(C)(C)c2cc(-c3csc(C4CCN(C(=O)[C@H]5C[C@H](O)CN5)CC4)n3)ccc21` [Compound A68] has an IC50 of 1000 to 10000 nM.
For `CCn1nccc1CN1CCC(c2nc(-c3ccc4c(c3)C(C)(C)CCC4(C)C)cs2)CC1` [Compound B11], the IC50 was 1000 to 10000 nM.
`CC1(C)CCC(C)(C)c2cc(-c3csc(C4CCN(CCCO)CC4)n3)ccc21` [Compound A16] showed an IC50 of 1000 to 10000 nM.
`CC1(C)CC(C)(C)c2cc(-c3csc(C4CCN(CCCCCO)CC4)n3)ccc21` [Compound B5] showed an IC50 of 10 to 1000 nM.
`CC1(C)CCC(C)(C)c2cc(-c3csc(C4CCN(C(=O)CCN5CCNCC5)CC4)n3)ccc21` [Compound A67] was tested, and the IC50 was over 10000 nM.
`COCCCOC(=O)N1CCC(c2nc(-c3ccc4c(c3)C(C)(C)CCC4(C)C)cs2)CC1` [Compound A46, 3-methoxypropyl 4-[4-(5,5,8,8-tetramethyl-5,6,7,8-tetrahydronaphthalen-2-yl)thiazol-2-yl]piperidine-1-carboxylate] showed an IC50 of 1000 to 10000 nM.
For `CN(C)CCN1CCC(c2nc(-c3ccc4c(c3)C(C)(C)CCC4(C)C)cs2)CC1` [Compound A4], the IC50 was 1000 to 10000 nM.
Molecule `CCc1cc2c(cc1-c1csc(C3CCNCC3)n1)C(C)(C)CCC2(C)C` [Compound C11] has an IC50 of over 10000 nM.
With `CC1(C)CCC(C)(C)c2cc(-c3csc(C4CCN(C(=O)OCC5CNCCO5)CC4)n3)ccc21` (stereo not drawn) [Compound B16] the IC50 was 1000 to 10000 nM.
Work on `CC1(C)CCC(C)(C)c2cc(-c3csc(C4CCN(C(=O)Cc5ccncc5)CC4)n3)ccc21` [Compound A51, 2-pyridin-4-yl-1-{4-[4-(5,5,8,8-tetramethyl-5,6,7,8-tetrahydronaphthalen-2-yl)thiazol-2-yl]piperidin-1-yl}ethanone] yielded an IC50 of 1000 to 10000 nM.
With `c1cc2c(cc1-c1csc(C3CCNCC3)n1)CCCC2` [Compound C6] the IC50 was 10 to 1000 nM.
`CC1(C)CCC(C)(C)c2cc(-c3csc(C4CCN(CCN5CCCCC5)CC4)n3)ccc21` [Compound A19] gave an IC50 of 1000 to 10000 nM.
`CCN(CC)CCNC(=O)N1CCC(c2nc(-c3ccc4c(c3)C(C)(C)CCC4(C)C)cs2)CC1` [Compound A45] showed an IC50 of over 10000 nM.
Work on `CCN1CCCC(N2CCC(c3nc(-c4ccc5c(c4)C(C)(C)CCC5(C)C)cs3)CC2)C1` (stereo not drawn) [Compound A2, 1′-ethyl-4-[4-(5,5,8,8-tetramethyl-5,6,7,8-tetrahydronaphthalen-2-yl)thiazol-2-yl]-[1,3]bipiperidinyl] yielded an IC50 of 1000 to 10000 nM.
`CC1(C)CCC(C)(C)c2cc(-c3csc(C4CCN(Cc5ccccn5)CC4)n3)ccc21` [Compound A77] was tested, and the IC50 was 1000 to 10000 nM.
Molecule `CN(C)CC(=O)N1CCC(c2nc(-c3ccc4c(c3)C(C)(C)CCC4(C)C)cs2)CC1` [Compound A55] has an IC50 of over 10000 nM.
In the case of `Cc1noc(C)c1CN1CCC(c2nc(-c3ccc4c(c3)C(C)(C)CCC4(C)C)cs2)CC1` [Compound B12], the IC50 is reported as 1000 to 10000 nM.
`CC(=O)N1CCC(c2nc(-c3ccc4c(c3)C(C)(C)CCC4(C)C)cs2)CC1` [Compound A80] was tested, and the IC50 was 1000 to 10000 nM.
`CC1(C)CCC(C)(C)c2cc(-c3csc(C4CCN(C[C@@H](O)CO)CC4)n3)ccc21` [Compound A12] showed an IC50 of 1000 to 10000 nM.
Work on `CC(CCO)N1CCC(c2nc(-c3ccc4c(c3)C(C)(C)CCC4(C)C)cs2)CC1` (stereo not drawn) [Compound A40] yielded an IC50 of 10 to 1000 nM.
Molecule `CC1(C)CCC(C)(C)c2cc(-c3csc(C4CCN(Cc5ncc[nH]5)CC4)n3)ccc21` [Compound B13] has an IC50 of 10 to 1000 nM.
Work on `CC(CN1CCOCC1)CN1CCC(c2nc(-c3ccc4c(c3)C(C)(C)CCC4(C)C)cs2)CC1` (stereo not drawn) [Compound A1, 4-(2-methyl-3-{4-[4-(5,5,8,8-tetramethyl-5,6,7,8-tetrahydronaphthalen-2-yl)thiazol-2-yl]piperidin-1-yl}propyl)morpholine] yielded an IC50 of over 10000 nM.
Molecule `CC1(C)CCC(C)(C)c2cc(-c3csc(C4CCN(CC(=O)N5CCOCC5)CC4)n3)ccc21` [Compound A31] has an IC50 of 1000 to 10000 nM.
Work on `CN1CCCC1CCN1CCC(c2nc(-c3ccc4c(c3)CCCC4)cs2)CC1` (stereo not drawn) [Compound A7] yielded an IC50 of over 10000 nM.
`CC1(C)CCC(C)(C)c2cc(-c3csc(C4CCN(CC5CNC(=O)O5)CC4)n3)ccc21` (stereo not drawn) [Compound A27] showed an IC50 of 1000 to 10000 nM.
Molecule `CC1(C)CCC(C)(C)c2cc(-c3csc(C4CCN(CCCCO)CC4)n3)ccc21` [Compound B2] has an IC50 of 10 to 1000 nM.
`CC1(C)CCC(C)(C)c2cc(-c3csc(C4CCN(C(=O)[C@H](N)CO)CC4)n3)ccc21` [Compound A70] was tested, and the IC50 was 1000 to 10000 nM.
`CC1(C)CCC(C)(C)c2cc(-c3csc(C4CCN(C(=O)NCC(N)=O)CC4)n3)ccc21` [Compound A44] was tested, and the IC50 was over 10000 nM.
`CC(CO)N1CCC(c2nc(-c3ccc4c(c3)C(C)(C)CCC4(C)C)cs2)CC1` (stereo not drawn) [Compound A38] gave an IC50 of 10 to 1000 nM.
`CN1CCC(c2nc(-c3ccc4c(c3)C(C)(C)CCC4(C)C)cs2)CC1` [Compound A33] showed an IC50 of 10 to 1000 nM.
Work on `CN1CCCCC1CCN1CCC(c2nc(-c3ccc4c(c3)C(C)(C)CCC4(C)C)cs2)CC1` (stereo not drawn) [Compound A23] yielded an IC50 of 1000 to 10000 nM.
For `CN(C)CCOCCOC(=O)N1CCC(c2nc(-c3ccc4c(c3)C(C)(C)CCC4(C)C)cs2)CC1` [Compound A47], the IC50 was 1000 to 10000 nM.
`CC1(C)CCCc2ccc(-c3csc(C4CCNCC4)n3)cc21` [Compound C3] showed an IC50 of 10 to 1000 nM.
Work on `Cc1cc2c(cc1-c1csc(C3CCNCC3)n1)C(C)(C)CCC2(C)C` [Compound C5] yielded an IC50 of 1000 to 10000 nM.
For `NC(=O)CN1CCC(c2nc(-c3ccc4c(c3)CCCC4)cs2)CC1` [Compound A3], the IC50 was over 10000 nM.
`OCCN1CCC(c2nc(-c3ccc4c(c3)CCCC4)cs2)CC1` [Compound A11] gave an IC50 of 1000 to 10000 nM.
With `CN1CCCC(COC(=O)N2CCC(c3nc(-c4ccc5c(c4)C(C)(C)CCC5(C)C)cs3)CC2)C1` (stereo not drawn) [Compound A50] the IC50 was over 10000 nM.
